Patent publication US20230158042A1, “COMBINATION CANCER THERAPY WITH PENTAAZA MACROCYCLIC RING COMPLEX AND HORMONE THERAPY AGENT” (Galera Labs, LLC, priority 2020, published 2023)

How the values were obtained:
LNCaP-ENZR cells = assay: Clonogenic cell survival in LNCaP-ENZR cells; assay type: cell-based; settings: GC4419 20 µM for 5 days, in the presence of ENZ
Description: FIGS. 21a-21b are a chart and graph showing that pharmacologically mimicking the activity of deacetylated lysine 68 MnSOD with a manganese pentaazamacrocyclic dismutase mimetic both inhibited the growth of LNCaP-ENZR tumors and reversed the enzalutamide resistance in LNCaP-ENZR / LNCaP—MnSOD^K68Q cells and tumors. In FIG. 21a, clonogenic cell survival experiments were performed in LNCaP-ENZR (left two bars) and LNCaP—MnSOD^K68Q (right two bars) treated with ENZ, with or without GC4419 (20 µM) for 5 days. […] Tumor volumes were measured three times a week for 46 days. For each group n=10. Error bars ± 1 SEM. All experiments done in triplicate. **p < 0.01.

MCF7-HTR cells = assay: Clonogenic cell survival, hydroxy-Tam-resistant MCF7 cells with GC4419; assay type: cell-based, human; settings: 5 µM GC4419 for 5 days; 1 µM hydroxy-Tam
Description: (§1) Clonogenic cell survival assay. For the clonogenic survival analysis, exponentially growing cells were replated using appropriate dilutions, and clonogenic survival was evaluated after 14 days in regular growth medium. Cells were stained with crystal violet, and colonies of >50 cells were counted and utilized to calculate clonogenic survival^46.
(§2) To test parameters indicative of oxidative stress, a clonogenic assay with hydroxy-Tam and MnPAM dismutase mimetic treatments was performed. Cells were plated at a density of 50,000 cells per 60-mm dish and treated with 1 µM hydroxy-Tam (Sigma) and 5 µM GC4419 (Galera Therapeutics) for a total of 120 h. This protocol was repeated with a fresh medium change every 24 h for 5 days. On day 6, the cells were trypsinized, counted, and replated in control medium using appropriate dilutions, and clonogenic survival was evaluated.

T47D-HTR cells [1] = assay: Ki-67 staining in T47D-HTR cells; assay type: cell-based, human; settings: 5 µM GC4419 for 5 days
Source text: With respect to FIG. 16a, the data from FIG. 7i, where MCF7-HTR cells were stained for Ki-67, as well as DAPI, were counted with ImageJ and quantified for average Ki-67 intensity as shown in the bar graph. With respect to FIGS. 16b and 16c, T47D and T47D-HTR cells were stained for Ki-67 as well as DAPI, and particles in the nucleus were counted with ImageJ and quantified for average Ki-67 intensity as shown in the bar graph. In FIGS. 16d and 16e, MCF7-HTR cells, and in FIGS. 16f and 16g, T47D-HTR cells, were treated with 5 µM GC4419 and/or 1 µM 4-hydroxy-Tam for 5 days, and then stained for Ki-67 as well as DAPI. Quantifications of average Ki-67 intensity are shown in the bar graphs. All experiments were done in triplicate. Error bars represent ± 1 SEM. ***p < 0.001. Representative images are shown.
Cells seeded on glass coverslips were fixed in 4% paraformaldehyde and then blocked with 1% BSA and 10% normal goat serum in 1x PBS. Cells were incubated with anti-Ki-67 (c-bioscience) antibody in 1x PBS followed by incubation with goat anti-rabbit IgG conjugated with Alexa Fluor 647 (Invitrogen) in 1x PBS with 5% goat serum. Cells were washed in 1x PBS, mounted, and imaged with a fluorescence microscope. Fluorescence images were captured using a laser scanning confocal microscope (Nikon A1 R). The paired images in all the figures were collected at the same gain and offset settings. […]

MCF7-Cispl-R cells [2] = assay: SOX2 and OCT4 levels in cisplatin-resistant MCF7 cells; assay type: cell-based, human; settings: data not shown
rat model = settings: cited from earlier work
[3] = system: head-and-neck cancer patients; settings: patients undergoing chemoradiation therapy, Phase 1 trial; cited from earlier work
MCF7-Cispl-R cells [4] = assay: Cell ROS levels in cisplatin-resistant MCF7 cells; assay type: cell-based, human; settings: data not shown
Description: FIGS. 27a-27c are an image and graphs showing that MnSOD—AcK68/ROS/HIF2α dysregulation directs PanR (multi-therapy resistance to cancer therapeutics). […] In FIG. 27b, ROS was measured in MCF7-Cispl-R cells, compared with MCF7 cells, using an Amplex Red assay. In FIG. 27c, MCF7 and MCF7-MnSOD^K68Q cells were measured by clonogenic cell survival assays, without and with cisplatin exposure, and infected with scrambled (C) or HIF2α shRNA. All experiments were done in triplicate. Error bars are ± 1 SEM. * p < 0.05.

T47D-HTR cells [5] = assay: Clonogenic cell survival, hydroxy-Tam-resistant T47D cells with GC4419; assay type: cell-based, human; settings: 5 µM GC4419 for 5 days; 1 µM hydroxy-Tam
Description: as §1, §2

[6] = system: Sirt3^-/--MT-SIRT3^WT allografts; assay: Sirt3-/--MT-SIRT3^WT mammary allograft tumor growth (bioluminescence); assay type: in vivo; settings: GC4419 by IP every other day for five weeks; compared to control mice
Description: (§3) FIGS. 29a-29b are plots showing that the growth of murine mammary allograft tumors is inhibited by exposure to the MnSOD mimic GC4419 much more in cells without expression of deacetylation competent SIRT3. […] Mice were subsequently injected with luciferin potassium (120 mg/kg) every week and signal intensity will be quantified. Error bars represent one SD from the mean.
(§4) These cell lines were subsequently infected with and selected to express either a SIRT3 wild-type (Sirt3^-/--MT-SIRT3^WT) or deacetylation activity null (Sirt3^-/--MT-SIRT3^DN) gene and a lenti-luciferase to assess tumor growth by bioluminescence. Allograft tumor mice were split into four groups: (1) control, untreated Sirt3^-/--MT-SIRT3^DN; (2) GC4419 treated Sirt3^-/--MT-SIRT3^DN; (3) control, untreated Sirt3^-/--MT-SIRT3^WT; and (4) GC4419 treated Sirt3^-/--MT-SIRT3^WT. […] Accordingly, it was shown that the growth of murine mammary allograft tumors is inhibited by pharmacologically mimicking the activity of deacetylated lysine 68 MnSOD with a manganese pentaazamacrocyclic dismutase mimetic much more in tumors without deacetylation competent SIRT3. Further, this supports that selection of tumors displaying an AcK68 signature could increase response to treatment with a MnPAM dismutase mimetic (or other methods) alone or in combination with other therapies.

[7] = system: Sirt3^-/--MT-SIRT3^DN allografts; assay: Sirt3-/--MT-SIRT3^DN mammary allograft tumor growth (bioluminescence); assay type: in vivo; settings: GC4419 by IP every other day for five weeks; compared to control mice
Description: as §3, §4

## [Cl][Mn][Cl].c1cc2nc(c1)CN[C@H]1CCCC[C@@H]1NCCN[C@H]1CCCC[C@@H]1NC2 [GC4419]
LNCaP-ENZR cells
  tumor cell survival (clonogenic): significant decrease in tumor cell survival in the presence of ENZ
MCF7-HTR cells
  hydroxy-Tam resistance (clonogenic cell survival): became sensitive to hydroxy-Tam
T47D-HTR cells [1]
  Ki-67 IHC staining: decreased Ki-67 IHC staining
MCF7-Cispl-R cells [2]
  SOX2 and OCT4 levels: decreased SOX2 and OCT4 levels
Rat model
  VEGFr inhibitor-induced pulmonary disease: attenuate VEGFr inhibitor-induced pulmonary disease
[3]
  oral mucositis: reduce oral mucositis
MCF7-Cispl-R cells [4]
  cell ROS levels: decreased cell ROS levels
T47D-HTR cells [5]
  hydroxy-Tam resistance (clonogenic cell survival): became sensitive to hydroxy-Tam
[6]
  tumor growth: little change in tumor growth
[7]
  tumor growth: significant decrease in tumor growth
